These results are taken from ChEMBL document CHEMBL5055626 (J Med Chem, 2021).

Activity calls are given as the source filed them. No cut-off for these calls is given here. Where a SMILES comes first, the peptide text is derived from it. Bridges are numbered along the chain shown (N, C = ends). Where only a bound is given, the exact number is not on record here.

Assay [1] deals with Nicotinic acetylcholine receptor alpha6/alpha3/beta4 (Homo sapiens, UniProt P30926+P32297+Q15825). The assay can be described thus: Antagonist activity at rat alpha6/alpha3beta4 nAChR expressed in xenopus oocytes assessed as inhibition of Ach- induced response at -70 mV holding potential preincubated for 5 mins followed by Ach stimulation by voltage-clamp based electrophysiological method. The assay is classed as cell-based, Oocyte.

Assay [2] has as its target Neuronal acetylcholine receptor; alpha2/beta2 (Rattus norvegicus, UniProt P12389+P12390). As to the kind of experiment: Antagonist activity at rat alpha2beta2 nAChR expressed in xenopus oocytes assessed as inhibition of Ach- induced response at -70 mV holding potential preincubated for 5 mins followed by Ach stimulation by voltage-clamp based electrophysiological method. The assay is classed as cell-based, Oocyte.

Assay [3] is described as follows: Antagonist activity at human nAChR alpha7 H141Q mutant expressed in xenopus oocytes assessed as inhibition of Ach- induced response at -70 mV holding potential preincubated for 5 mins followed by Ach stimulation by voltage-clamp based electrophysiological method. The settings on record: Oocyte. It is filed as cell-based.
Assay [4] concerns the target Nicotinic acetylcholine receptor alpha9/alpha10 (Rattus norvegicus) (UniProt P43144+Q9JLB5). The assay can be described thus: Antagonist activity at rat alpha9alpha10 nAChR expressed in xenopus oocytes assessed as inhibition of Ach- induced response at 10 uM at -70 mV holding potential preincubated for 5 mins followed by Ach stimulation by voltage-clamp based electrophysiological method. The assay is classed as cell-based. As to conditions: Oocyte.

Assay [5] addresses Neuronal acetylcholine receptor; alpha2/beta2 (Rattus norvegicus) (UniProt P12389+P12390). The assay can be described thus: Antagonist activity at rat alpha2beta2 nAChR expressed in xenopus oocytes assessed as inhibition of Ach- induced response at 10 uM at -70 mV holding potential preincubated for 5 mins followed by Ach stimulation by voltage-clamp based electrophysiological method. It is filed as cell-based. As to conditions: Oocyte.

Assay [6] has as its target Neuronal acetylcholine receptor; alpha4/beta4 (Rattus norvegicus) (UniProt P09483+P12392). As to the kind of experiment: Antagonist activity at rat alpha4beta4 nAChR expressed in xenopus oocytes assessed as inhibition of Ach- induced response at 10 uM at -70 mV holding potential preincubated for 5 mins followed by Ach stimulation by voltage-clamp based electrophysiological method. It is filed as cell-based. The settings on record: Oocyte.

Nicotinic acetylcholine receptor alpha6/alpha3/beta4, sequence (P30926 whole entry): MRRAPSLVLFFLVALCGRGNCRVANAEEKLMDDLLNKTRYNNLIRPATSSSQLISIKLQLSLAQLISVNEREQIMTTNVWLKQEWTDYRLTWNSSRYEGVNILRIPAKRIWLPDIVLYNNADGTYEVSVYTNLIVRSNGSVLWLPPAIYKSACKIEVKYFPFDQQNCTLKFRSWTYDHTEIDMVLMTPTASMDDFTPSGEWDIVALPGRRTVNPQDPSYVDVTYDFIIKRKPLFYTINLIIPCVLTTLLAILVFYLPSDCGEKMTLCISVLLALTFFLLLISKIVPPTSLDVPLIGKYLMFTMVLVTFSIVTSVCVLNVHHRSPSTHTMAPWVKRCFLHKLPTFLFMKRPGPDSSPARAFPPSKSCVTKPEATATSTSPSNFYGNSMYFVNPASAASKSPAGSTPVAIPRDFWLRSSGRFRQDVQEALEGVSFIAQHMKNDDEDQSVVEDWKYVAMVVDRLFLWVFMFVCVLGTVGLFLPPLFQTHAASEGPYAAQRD
Nicotinic acetylcholine receptor alpha6/alpha3/beta4, sequence (P32297 whole entry): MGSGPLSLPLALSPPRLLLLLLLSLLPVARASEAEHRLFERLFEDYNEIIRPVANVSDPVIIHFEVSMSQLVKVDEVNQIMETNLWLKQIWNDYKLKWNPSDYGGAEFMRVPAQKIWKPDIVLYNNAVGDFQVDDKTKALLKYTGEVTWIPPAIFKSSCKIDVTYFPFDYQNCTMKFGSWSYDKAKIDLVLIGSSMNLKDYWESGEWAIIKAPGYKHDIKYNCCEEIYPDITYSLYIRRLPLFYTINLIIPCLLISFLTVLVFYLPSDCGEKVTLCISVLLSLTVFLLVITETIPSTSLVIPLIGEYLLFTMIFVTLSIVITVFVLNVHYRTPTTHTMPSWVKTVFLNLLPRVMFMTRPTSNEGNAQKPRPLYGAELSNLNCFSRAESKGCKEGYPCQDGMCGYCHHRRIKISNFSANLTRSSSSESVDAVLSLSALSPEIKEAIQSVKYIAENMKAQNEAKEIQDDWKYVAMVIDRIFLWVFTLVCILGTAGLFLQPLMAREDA
Nicotinic acetylcholine receptor alpha6/alpha3/beta4, sequence (Q15825 whole entry): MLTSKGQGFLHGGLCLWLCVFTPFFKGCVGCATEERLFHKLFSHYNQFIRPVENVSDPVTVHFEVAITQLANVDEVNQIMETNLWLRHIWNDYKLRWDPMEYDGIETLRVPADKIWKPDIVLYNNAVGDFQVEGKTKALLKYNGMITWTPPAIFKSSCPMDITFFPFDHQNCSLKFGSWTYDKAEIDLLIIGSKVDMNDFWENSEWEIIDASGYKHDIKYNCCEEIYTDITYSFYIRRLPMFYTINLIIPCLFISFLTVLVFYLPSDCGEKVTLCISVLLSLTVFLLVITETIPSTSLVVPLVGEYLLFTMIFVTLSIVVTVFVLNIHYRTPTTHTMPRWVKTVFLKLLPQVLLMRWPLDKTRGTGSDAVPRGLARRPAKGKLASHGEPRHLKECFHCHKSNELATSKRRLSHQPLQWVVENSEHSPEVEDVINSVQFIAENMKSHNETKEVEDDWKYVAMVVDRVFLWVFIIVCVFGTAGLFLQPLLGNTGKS
Neuronal acetylcholine receptor; alpha2/beta2, sequence (P12389 whole entry): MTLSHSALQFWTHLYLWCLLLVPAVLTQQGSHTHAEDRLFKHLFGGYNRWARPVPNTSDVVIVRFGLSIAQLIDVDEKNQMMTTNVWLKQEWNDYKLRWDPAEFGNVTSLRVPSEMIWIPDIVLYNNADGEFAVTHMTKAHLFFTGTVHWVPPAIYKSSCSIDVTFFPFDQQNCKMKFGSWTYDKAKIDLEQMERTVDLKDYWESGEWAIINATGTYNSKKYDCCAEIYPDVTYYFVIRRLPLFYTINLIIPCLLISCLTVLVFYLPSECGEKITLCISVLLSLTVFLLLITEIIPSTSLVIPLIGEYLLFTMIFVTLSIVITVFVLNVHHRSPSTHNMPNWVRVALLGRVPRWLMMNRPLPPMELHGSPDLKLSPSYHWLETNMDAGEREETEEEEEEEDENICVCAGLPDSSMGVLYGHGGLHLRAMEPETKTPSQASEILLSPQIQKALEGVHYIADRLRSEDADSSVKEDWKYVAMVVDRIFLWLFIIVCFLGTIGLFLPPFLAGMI
Neuronal acetylcholine receptor; alpha2/beta2, sequence (P12390 whole entry): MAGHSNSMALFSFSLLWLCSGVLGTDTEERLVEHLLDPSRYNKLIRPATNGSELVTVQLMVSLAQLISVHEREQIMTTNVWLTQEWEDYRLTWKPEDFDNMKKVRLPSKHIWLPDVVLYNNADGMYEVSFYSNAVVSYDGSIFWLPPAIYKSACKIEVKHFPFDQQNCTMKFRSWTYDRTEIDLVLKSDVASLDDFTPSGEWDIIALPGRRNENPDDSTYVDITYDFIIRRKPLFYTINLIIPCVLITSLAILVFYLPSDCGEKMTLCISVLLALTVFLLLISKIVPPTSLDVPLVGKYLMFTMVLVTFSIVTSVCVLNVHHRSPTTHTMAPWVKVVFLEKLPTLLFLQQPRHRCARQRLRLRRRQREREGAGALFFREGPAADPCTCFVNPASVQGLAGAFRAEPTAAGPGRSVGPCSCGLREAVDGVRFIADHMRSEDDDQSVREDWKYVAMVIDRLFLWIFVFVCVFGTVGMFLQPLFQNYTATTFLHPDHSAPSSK

For `C[C@@H]1NC(=O)[C@@H]2CSSC[C@H](NC(=O)CN)C(=O)N[C@@H](CSSC[C@@H](C(N)=O)NC(=O)[C@H](Cc3cnc[nH]3)NC(=O)[C@H](CCC(=O)O)NC(=O)[C@H](Cc3cnc[nH]3)NC1=O)C(=O)N[C@@H](CO)C(=O)N[C@@H](CC(N)=O)C(=O)N1CCC[C@H]1C(=O)N1CCC[C@H]1C(=O)N2` (H-GCCSNPPCAHEHC-NH2; disulfide 2-8, 3-13), the IC50 is 1.41 µM in assay [1], above 10 µM in assay [2] and 1.07 µM in assay [3]. Also, the inhibition entry in assay [4], in assay [5] and in assay [6] was “inactive” in each case.
